Assay results published in patent publication US12630498B2 (Genzyme Corporation, priority 2019, dated 2026).

Columns and labels:
[1] = target: T1, human Cystic Fibrosis Transmembrane Conductance Regulator (CFTR) harboring the ΔF508 mutation (Homo sapiens, UniProt P13569, DEL508-508); test: H441 cell ΔF508-CFTR-HRP cell surface assay (Emax and EC50); type: cell-based; settings: for Emax: NCI-H441, NA = Not active
T1 construct: expressed in transfected cells; host or cells: H441 carcinoma line (G418-selected)
Outline: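 H441 and 41o- bronchial epithelial cells expressing ΔF508-CFTR with an extracellular-loop-4 HRP tag were treated with a 15-point compound series (24.5–0.001 μM) for two nights, H441 at 27° C, 41o- at 37° C with 0.0005 mg/ml doxycycline. Surface HRP luminescence read; % of maximum VX809 signal and EC50 derived.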

[2] = target: T2, CFTR-mediated transepithelial chloride transport in primary human bronchial epithelial cells from a ΔF508 homozygous CF donor (Homo sapiens, UniProt P13569, DEL508-508); test: TECC24 recording of CFTR-mediated transepithelial chloride transport in CF-HBE cells (AUC fold over DMSO); type: cell-based; settings: test agent 10 μM, 48 hours incubation, AUC of forskolin-stimulated IEQ relative to DMSO
T2 construct: Primary human bronchial epithelial cells from a ΔF508 homozygous CF donor; host or cells: primary CF-HBE cells, ΔF508 homozygous donor
Outline: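 Primary ΔF508/ΔF508 CF-HBE cells on inserts exposed to test agent in IL-13-containing medium for 48 h at 36.5 °C. Current-clamp VT/TEER recording in pH 7.4 HEPES saline with benzamil 10 μM, forskolin 10 μM, then CFTRinh-172 20 μM. AUC of equivalent Cl⁻ current between forskolin and inhibitor, expressed as ratio over vehicle.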

T1 sequence (P13569 with tags, fused parts or gaps DEL508-508): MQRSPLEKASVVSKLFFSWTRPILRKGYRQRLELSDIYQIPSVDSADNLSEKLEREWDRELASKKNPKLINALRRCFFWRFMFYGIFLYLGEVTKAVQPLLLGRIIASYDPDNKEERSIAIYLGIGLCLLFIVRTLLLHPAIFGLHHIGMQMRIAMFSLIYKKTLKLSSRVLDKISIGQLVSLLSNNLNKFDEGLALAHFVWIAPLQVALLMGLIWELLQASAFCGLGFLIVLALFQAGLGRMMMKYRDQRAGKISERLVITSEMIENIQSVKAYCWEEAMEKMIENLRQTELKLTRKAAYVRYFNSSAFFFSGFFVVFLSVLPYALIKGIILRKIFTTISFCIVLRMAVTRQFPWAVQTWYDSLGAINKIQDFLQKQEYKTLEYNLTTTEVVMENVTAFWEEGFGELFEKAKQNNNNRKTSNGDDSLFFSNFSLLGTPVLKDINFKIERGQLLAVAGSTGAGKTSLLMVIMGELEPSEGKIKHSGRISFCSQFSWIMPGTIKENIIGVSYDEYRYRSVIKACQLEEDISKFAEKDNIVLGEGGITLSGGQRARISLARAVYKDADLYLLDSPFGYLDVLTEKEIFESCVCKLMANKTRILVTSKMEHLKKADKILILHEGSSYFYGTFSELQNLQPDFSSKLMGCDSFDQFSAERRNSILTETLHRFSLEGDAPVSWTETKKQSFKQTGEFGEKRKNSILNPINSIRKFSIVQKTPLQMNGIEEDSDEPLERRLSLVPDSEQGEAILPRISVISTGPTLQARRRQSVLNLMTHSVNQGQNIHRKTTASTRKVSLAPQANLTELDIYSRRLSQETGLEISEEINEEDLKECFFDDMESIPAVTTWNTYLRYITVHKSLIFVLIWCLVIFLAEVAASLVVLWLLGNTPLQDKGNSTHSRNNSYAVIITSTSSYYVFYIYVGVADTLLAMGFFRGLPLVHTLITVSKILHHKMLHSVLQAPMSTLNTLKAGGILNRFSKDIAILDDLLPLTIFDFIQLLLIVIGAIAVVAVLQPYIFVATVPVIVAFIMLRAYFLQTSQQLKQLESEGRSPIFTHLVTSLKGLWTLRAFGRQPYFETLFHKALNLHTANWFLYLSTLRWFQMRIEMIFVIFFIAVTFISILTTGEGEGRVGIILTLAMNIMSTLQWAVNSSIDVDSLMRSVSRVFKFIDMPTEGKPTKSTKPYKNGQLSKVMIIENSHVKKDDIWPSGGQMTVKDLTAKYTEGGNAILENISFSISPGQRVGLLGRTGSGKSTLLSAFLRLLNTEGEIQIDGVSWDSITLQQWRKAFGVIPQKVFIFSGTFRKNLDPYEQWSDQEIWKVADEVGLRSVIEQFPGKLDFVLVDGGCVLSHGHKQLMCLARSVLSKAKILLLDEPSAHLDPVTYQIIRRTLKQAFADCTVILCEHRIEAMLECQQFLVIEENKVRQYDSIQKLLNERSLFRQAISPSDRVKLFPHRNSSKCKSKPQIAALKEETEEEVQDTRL
T2 sequence (P13569 with tags, fused parts or gaps DEL508-508): as above

| SMILES | EC50 [1] | Emax [1] | TECC24 AUC fold over DMSO @10 μM [2] |
| --- | --- | --- | --- |
| CC(C)(C)C[C@H](NC(=O)c1ccc2ccccc2c1OCc1nc2ccccc2s1)C(=O)O [Example 214, (S)-2-(1-(benzo[d]thiazol-2-ylmethoxy)-2-naphthamido)-4,4-dimethylpentanoic Acid] | 3400 nM | 112% | C (“C” refers to AUC @10 uM <4) |
| CC(C)(C)[C@H](NC(=O)c1ccc2ccccc2c1OCC1CC2CCC1C2)C(=O)O (stereo partly drawn) [Example 41, (2S)-2-(1-(bicyclo[2.2.1]heptan-2-ylmethoxy)-2-naphthamido)-3,3-dimethylbutanoic Acid] | 3700 nM | 112% | C (“C” refers to AUC @10 uM <4) |
| CC1(C(NC(=O)c2ccc3ccccc3c2OCc2ccc(C(F)(F)F)cc2)C(=O)O)CC1 (stereo not drawn) [Example 56, 2-(1-methylcyclopropyl)-2-(1-((4-(trifluoromethyl)benzyl)oxy)-2-naphthamido)acetic Acid] | 1700 nM | 127% | C (“C” refers to AUC @10 uM <4) |
| CCC(C)(C)[C@H](NC(=O)c1ccc2ccc(C(F)(F)F)cc2c1OCc1ccc(OC(F)(F)F)cc1)C(=O)O [Example 296, (S)-3,3-dimethyl-2-(1-((4-(trifluoromethoxy)benzyl)oxy)-7-(trifluoromethyl)-2-naphthamido)pentanoic Acid] | 200 nM | 186% | A (“A” refers to AUC @10 uM >6) |
| O=C(N[C@H](C(=O)O)C1CCCC1)c1ccc2ccccc2c1OCc1ccc(S(F)(F)(F)(F)F)cc1 [Example 111, (S)-2-cyclopentyl-2-(1-((4-(pentafluoro-16-sulfanyl)benzyl)oxy)-2-naphthamido)acetic Acid] | 2300 nM | 93.1% | B (“B” refers to AUC @10 uM between 4-6) |

The next lines start with the values.

| EC50 [1] | Emax [1] | TECC24 AUC fold over DMSO @10 μM [2] | SMILES |
| --- | --- | --- | --- |
| 1800 nM | 70.7% | B (“B” refers to AUC @10 uM between 4-6) | CC(C)(C)[C@@H](NC(=O)c1ccc2ccc(C(F)F)cc2c1OCc1ccc(OC(F)(F)F)cc1)C(=O)O [Example 264, (2R)-2-[[7-(difluoromethyl)-1-[[4-(trifluoromethoxy)phenyl]methoxy]naphthalene-2-carbonyl]amino]-3,3-dimethyl-butanoic Acid] |
| 200 nM | 322% | A (“A” refers to AUC @10 uM >6) | CCC(C)(C)C(NC(=O)c1ccc2ccc(C)cc2c1OCc1ccc(C(F)(F)F)cc1)C(=O)O (stereo not drawn) [Example 275, 3,3-Dimethyl-2-{[7-methyl-1-(4-trifluoromethyl-benzyloxy)-naphthalene-2-carbonyl]-amino}-pentanoic Acid] |
| 600 nM | 134% | B (“B” refers to AUC @10 uM between 4-6) | CC(C)(C)[C@H](NC(=O)c1ccc2cc(F)ccc2c1OCc1ccc(C(F)(F)F)cc1)C(=O)O [Example 27, (S)-2-(6-fluoro-1-((4-(trifluoromethyl)benzyl)oxy)-2-naphthamido)-3,3-dimethylbutanoic Acid] |
| 600 nM | 152% | A (“A” refers to AUC @10 uM >6) | CCC(C)(C)[C@H](NC(=O)c1ccc2c(F)cccc2c1OCc1ccc(C(F)(F)F)cc1)C(=O)O [Example 230, (2S)-2-[[5-fluoro-1-[[4-(trifluoromethyl)phenyl]methoxy]naphthalene-2-carbonyl]amino]-3,3-dimethyl-pentanoic Acid] |
| 100 nM | 275% | A (“A” refers to AUC @10 uM >6) | CC(C)(C)[C@H](NC(=O)c1ccc2ccc(Cl)cc2c1OCc1ccc(OC(F)(F)F)cc1)C(=O)O [Example 237, (S)-2-(7-chloro-1-((4-(trifluoromethoxy)benzyl)oxy)-2-naphthamido)-3,3-dimethyl Butanoic Acid] |
